What all share (experiment): Further analysis of a plurality of inhibitors and a plurality of kinases (Table 5 inhibition results)
What all share (format): biochemical
What all share (set-up): scale not given here

Assay [1] addresses kinases of Table 5 (Homo sapiens, UniProt Q13627). The settings on record: kinase DYRK1A (Part I, plate G6, Domain 1). The source says:
(§1) The wash solution is then discarded.

Assay [2] concerns the target kinases of Table 5 (Homo sapiens, UniProt Q13557). The settings on record: kinase CAMK2D.
Excerpt: as §1

Assay [3] concerns the target kinases of Table 5 (Homo sapiens, UniProt P11362). The note with it: kinase FGFR1; inhibitor 100 uM.
Excerpt: as §1

Assay [4] addresses T1, kinases of Table 5 (Homo sapiens, UniProt Q9Y616).
T1 sequence (Q9Y616 1-596): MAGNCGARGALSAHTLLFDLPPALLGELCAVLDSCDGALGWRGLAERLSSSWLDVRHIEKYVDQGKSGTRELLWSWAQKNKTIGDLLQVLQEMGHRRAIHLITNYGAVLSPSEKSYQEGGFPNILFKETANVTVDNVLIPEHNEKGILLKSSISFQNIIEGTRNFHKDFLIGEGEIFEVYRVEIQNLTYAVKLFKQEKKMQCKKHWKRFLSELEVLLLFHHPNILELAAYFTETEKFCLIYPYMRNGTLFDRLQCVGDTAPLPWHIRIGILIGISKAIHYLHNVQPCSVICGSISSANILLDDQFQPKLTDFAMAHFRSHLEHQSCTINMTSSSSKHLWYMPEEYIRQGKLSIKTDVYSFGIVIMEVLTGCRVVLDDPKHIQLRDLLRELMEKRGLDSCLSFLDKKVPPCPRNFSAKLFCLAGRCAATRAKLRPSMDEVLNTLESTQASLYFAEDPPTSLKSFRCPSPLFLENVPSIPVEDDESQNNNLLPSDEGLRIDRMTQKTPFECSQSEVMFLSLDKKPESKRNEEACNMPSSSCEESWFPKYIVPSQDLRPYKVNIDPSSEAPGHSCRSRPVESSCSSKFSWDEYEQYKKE
The note with it: kinase IRAK3 (Part I, plate C9, Domain 1); inhibitor 100 uM.
Excerpt: as §1

The target of assay [5] is T2, kinases of Table 5 (Homo sapiens, UniProt P54753).
T2 sequence (P54753 34-998): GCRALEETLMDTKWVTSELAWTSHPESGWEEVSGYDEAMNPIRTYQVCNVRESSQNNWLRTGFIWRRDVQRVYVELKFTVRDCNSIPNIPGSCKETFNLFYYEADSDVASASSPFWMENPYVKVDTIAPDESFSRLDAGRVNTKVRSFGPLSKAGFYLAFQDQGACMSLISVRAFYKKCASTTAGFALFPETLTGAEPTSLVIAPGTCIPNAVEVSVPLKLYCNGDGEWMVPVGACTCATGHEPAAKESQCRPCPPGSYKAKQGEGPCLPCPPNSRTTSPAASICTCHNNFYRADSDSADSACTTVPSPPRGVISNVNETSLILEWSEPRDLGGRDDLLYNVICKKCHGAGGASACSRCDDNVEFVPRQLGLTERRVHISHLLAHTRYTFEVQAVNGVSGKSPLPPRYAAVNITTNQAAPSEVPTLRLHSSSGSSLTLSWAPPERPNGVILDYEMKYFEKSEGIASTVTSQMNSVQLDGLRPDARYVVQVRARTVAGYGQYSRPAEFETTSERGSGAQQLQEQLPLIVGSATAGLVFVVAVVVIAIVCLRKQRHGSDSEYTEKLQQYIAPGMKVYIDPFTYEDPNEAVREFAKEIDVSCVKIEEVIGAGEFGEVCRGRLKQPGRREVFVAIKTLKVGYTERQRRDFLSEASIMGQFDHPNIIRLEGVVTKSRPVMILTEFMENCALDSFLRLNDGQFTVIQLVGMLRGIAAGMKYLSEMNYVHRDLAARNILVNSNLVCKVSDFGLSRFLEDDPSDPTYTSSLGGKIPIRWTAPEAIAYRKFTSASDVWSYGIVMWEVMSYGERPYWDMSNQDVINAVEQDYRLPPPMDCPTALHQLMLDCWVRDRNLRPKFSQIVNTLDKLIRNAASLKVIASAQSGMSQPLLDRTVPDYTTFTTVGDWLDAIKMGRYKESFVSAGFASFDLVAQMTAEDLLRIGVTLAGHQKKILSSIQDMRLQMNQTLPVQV
The note with it: kinase EPHB3.
Excerpt: as §1

Assay [6] has as its target kinases of Table 5 (Homo sapiens, UniProt P11309). The settings on record: kinase PIM1 (Part I, plate C2, Domain 1).
Excerpt: as §1

Assay [7] has as its target kinases of Table 5 (Homo sapiens, UniProt P06239). The note with it: kinase LCK (Part I, plate A6, Domain 0).
Excerpt: as §1

Assay [8] deals with kinases of Table 5 (Homo sapiens, UniProt Q00536). The note with it: kinase PCTK1 (Part I, plate A3, Domain 0); inhibitor 100 uM.
Excerpt: as §1

Assay [9] deals with T3, kinases of Table 5 (Homo sapiens, UniProt P45985).
T3 sequence (P45985 1-399): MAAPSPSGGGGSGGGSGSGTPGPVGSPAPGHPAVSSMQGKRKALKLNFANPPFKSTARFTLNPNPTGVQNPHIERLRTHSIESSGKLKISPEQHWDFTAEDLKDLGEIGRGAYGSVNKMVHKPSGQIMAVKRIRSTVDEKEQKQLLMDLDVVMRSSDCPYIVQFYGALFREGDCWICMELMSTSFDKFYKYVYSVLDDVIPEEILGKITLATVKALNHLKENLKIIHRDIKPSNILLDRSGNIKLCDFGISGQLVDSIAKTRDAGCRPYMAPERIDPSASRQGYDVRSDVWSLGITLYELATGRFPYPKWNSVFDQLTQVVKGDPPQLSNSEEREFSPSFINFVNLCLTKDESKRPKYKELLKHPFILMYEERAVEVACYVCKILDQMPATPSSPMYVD
The settings on record: kinase MAP2K4 (Part I, plate E6, Domain 1).
Excerpt: as §1

Assay [10] deals with kinases of Table 5 (Homo sapiens, UniProt P07948). The settings on record: kinase LYN (Part I, plate A5, Domain 0).
Excerpt: as §1

Assay [11] addresses kinases of Table 5 (Homo sapiens, UniProt P06241). The settings on record: kinase FYN (Part I, plate A4, Domain 0).
Excerpt: as §1

SMILES strings stand for the structures.

Chain of kinases of Table 5 (Homo sapiens, UniProt P06239) (P06239 whole entry): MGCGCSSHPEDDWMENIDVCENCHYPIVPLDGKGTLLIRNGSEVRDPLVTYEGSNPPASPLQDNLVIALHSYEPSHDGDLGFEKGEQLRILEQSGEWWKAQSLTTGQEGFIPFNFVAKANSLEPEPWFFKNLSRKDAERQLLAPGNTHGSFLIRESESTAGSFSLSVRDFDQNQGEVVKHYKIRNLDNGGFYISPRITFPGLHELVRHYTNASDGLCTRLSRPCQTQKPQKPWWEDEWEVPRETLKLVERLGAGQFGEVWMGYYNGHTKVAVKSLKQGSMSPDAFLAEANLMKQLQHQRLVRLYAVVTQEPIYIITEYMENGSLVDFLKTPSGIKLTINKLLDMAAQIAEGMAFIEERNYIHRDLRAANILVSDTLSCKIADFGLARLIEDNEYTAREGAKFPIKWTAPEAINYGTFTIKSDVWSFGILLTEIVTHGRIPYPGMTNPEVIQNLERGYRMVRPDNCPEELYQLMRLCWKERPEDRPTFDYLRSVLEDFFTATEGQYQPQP
Chain of kinases of Table 5 (Homo sapiens, UniProt P11309) (P11309 whole entry): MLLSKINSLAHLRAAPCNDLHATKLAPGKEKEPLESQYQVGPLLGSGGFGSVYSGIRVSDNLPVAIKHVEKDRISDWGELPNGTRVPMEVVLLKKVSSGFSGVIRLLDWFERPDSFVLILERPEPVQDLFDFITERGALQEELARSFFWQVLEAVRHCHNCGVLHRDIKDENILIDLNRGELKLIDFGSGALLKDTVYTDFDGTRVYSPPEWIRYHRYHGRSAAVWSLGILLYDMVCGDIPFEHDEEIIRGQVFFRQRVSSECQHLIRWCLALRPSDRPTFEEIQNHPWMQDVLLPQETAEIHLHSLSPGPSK
Chain of kinases of Table 5 (Homo sapiens, UniProt P06241) (P06241 whole entry): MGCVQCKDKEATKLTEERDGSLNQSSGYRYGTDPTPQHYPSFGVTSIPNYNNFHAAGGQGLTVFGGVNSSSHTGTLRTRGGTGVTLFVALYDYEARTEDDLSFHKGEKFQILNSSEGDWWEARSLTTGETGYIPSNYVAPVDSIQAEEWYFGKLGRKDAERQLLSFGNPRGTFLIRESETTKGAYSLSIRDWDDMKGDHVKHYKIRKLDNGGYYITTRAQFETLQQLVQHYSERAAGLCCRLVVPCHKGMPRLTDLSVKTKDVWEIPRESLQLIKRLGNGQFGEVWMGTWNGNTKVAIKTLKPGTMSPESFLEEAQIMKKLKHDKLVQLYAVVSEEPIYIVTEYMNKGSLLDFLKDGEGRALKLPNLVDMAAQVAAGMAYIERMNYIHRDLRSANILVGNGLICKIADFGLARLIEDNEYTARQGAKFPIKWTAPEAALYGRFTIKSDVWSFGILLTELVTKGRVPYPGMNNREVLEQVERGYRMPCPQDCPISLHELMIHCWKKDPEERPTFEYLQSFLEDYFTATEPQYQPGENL
Chain of kinases of Table 5 (Homo sapiens, UniProt P07948) (P07948 whole entry): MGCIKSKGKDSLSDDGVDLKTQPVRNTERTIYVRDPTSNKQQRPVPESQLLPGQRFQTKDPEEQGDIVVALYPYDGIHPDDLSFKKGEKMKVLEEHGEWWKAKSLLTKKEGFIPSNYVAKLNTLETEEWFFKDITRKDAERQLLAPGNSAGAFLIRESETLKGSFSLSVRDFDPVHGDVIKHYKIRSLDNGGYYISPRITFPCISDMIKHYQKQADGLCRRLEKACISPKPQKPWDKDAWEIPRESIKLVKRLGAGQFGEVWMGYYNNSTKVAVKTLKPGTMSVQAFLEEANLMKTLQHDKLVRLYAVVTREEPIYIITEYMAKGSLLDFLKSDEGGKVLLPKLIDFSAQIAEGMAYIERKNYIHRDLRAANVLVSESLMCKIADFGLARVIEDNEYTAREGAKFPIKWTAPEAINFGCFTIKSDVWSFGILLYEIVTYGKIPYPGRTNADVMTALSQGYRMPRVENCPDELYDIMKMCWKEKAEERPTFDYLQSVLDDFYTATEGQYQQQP
Chain of kinases of Table 5 (Homo sapiens, UniProt Q13557) (Q13557 whole entry): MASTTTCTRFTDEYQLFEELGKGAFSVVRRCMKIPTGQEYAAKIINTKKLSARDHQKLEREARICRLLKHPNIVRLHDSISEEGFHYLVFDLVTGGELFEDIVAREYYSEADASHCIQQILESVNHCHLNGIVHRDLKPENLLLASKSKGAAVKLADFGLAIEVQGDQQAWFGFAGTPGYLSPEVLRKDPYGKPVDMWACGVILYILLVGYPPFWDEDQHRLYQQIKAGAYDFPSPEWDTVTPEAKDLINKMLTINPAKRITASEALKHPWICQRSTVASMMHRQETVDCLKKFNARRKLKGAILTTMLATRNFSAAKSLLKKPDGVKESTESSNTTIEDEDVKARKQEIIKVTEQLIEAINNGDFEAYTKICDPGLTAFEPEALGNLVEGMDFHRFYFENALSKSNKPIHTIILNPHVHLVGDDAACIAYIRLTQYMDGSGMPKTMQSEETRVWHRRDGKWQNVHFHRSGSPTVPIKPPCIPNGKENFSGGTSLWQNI
Chain of kinases of Table 5 (Homo sapiens, UniProt P11362) (P11362 22-822): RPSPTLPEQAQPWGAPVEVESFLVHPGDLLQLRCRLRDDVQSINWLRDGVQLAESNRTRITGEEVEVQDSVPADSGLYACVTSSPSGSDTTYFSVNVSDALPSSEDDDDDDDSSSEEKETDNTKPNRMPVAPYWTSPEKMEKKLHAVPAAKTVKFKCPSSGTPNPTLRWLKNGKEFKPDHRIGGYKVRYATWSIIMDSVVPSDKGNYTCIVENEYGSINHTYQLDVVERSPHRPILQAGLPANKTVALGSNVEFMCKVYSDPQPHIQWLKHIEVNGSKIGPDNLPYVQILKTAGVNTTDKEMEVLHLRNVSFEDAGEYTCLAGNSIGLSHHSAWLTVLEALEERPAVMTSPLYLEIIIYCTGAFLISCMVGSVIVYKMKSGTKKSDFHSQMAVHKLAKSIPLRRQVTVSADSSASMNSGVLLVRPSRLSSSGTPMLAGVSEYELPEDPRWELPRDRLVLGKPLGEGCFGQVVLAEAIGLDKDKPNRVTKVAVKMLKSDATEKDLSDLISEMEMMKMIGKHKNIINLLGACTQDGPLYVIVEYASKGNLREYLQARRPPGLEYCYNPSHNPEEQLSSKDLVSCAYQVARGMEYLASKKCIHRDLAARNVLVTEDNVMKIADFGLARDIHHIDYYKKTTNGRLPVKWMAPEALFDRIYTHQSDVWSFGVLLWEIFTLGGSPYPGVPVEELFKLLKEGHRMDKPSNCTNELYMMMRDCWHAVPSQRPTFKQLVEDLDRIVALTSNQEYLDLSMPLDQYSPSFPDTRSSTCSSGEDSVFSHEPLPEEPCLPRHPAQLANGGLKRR
Chain of kinases of Table 5 (Homo sapiens, UniProt Q00536) (Q00536 whole entry): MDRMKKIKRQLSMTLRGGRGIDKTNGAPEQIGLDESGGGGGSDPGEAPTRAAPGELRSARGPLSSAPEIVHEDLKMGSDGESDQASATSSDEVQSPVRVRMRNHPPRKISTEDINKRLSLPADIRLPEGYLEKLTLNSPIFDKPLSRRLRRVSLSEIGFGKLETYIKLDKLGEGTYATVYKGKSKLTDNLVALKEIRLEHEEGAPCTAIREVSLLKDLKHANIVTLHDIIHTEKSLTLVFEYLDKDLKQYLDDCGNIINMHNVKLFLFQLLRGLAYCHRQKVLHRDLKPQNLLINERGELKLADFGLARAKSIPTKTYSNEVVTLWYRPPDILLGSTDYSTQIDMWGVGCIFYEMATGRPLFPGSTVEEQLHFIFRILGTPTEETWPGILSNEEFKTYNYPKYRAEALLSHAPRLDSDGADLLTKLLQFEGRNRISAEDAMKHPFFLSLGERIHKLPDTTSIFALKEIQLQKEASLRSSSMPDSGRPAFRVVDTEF

In the case of `Cn1cc(C2=C(c3cn(CCCSC(=N)N)c4ccccc34)C(=O)NC2=O)c2ccccc21` [Ro-31-8220], the “Inhibition Results (Level)” value on kinases of Table 5 [1] (inhibitor 90 uM) is on record as 0; at kinases of Table 5 [1] (inhibitor 100 uM), 2; on kinases of Table 5 [4], 2; on kinases of Table 5 [6] (inhibitor 90 uM), 2; at kinases of Table 5 [6] (inhibitor 100 uM), 0; on kinases of Table 5 [7] (inhibitor 90 uM), 0. Besides, the “Inhibition Results (Level)” value came out at 2 at kinases of Table 5 [7] (inhibitor 100 uM); 0 on kinases of Table 5 [8]; 0 on kinases of Table 5 [9] (inhibitor 90 uM); 1 at kinases of Table 5 [9] (inhibitor 100 uM); 0 on kinases of Table 5 [10] (inhibitor 90 uM); 2 on kinases of Table 5 [10] (inhibitor 100 uM). For the same compound, the “Inhibition Results (Level)” value on kinases of Table 5 [11] (inhibitor 90 uM) is 0; at kinases of Table 5 [11] (inhibitor 100 uM), 2. Moreover, the Inhibition level at kinases of Table 5 [2] (concentration not given) is 2; on kinases of Table 5 [2] (inhibitor 100 uM), 0; on kinases of Table 5 [3], 2; at kinases of Table 5 [5] (concentration not given), 0; on kinases of Table 5 [5] (inhibitor 100 uM), 2.

The record behind these values is US20090099029A1, “Methods and substrates for conducting assays” (Invitrogen Corporation, priority 2005, published 2009).
